# Laboratory results as given in article PMC12367838, “Relevance of kinetic interactions and co-formulants for plant protection product liver toxicity in vitro” (Archives of Toxicology, 2025).
# Experiments:
# [1] = test system: HepaRG cells; test: WST-1 cytotoxicity assay; assay type: cell-based, human; settings: WST-1 assay, 72 h incubation
# Method: Wild-type human hepatoma HepaRG cells obtained from Biopredic International (Saint Grégoire, France) were cultivated for 4 weeks in a Binder cell culture incubator maintained at 37 °C in a 5% humidified atmosphere with 5% CO2 before they were employed in this study. The 4 weeks consisted of 2 weeks of proliferation and 2 weeks of differentiation. […]
# Cytotoxicity assays were performed in 96-well plates at a density of 9000 cells per well, and test compounds were incubated for 72 h. […] After the 30-min incubation with WST-1, absorbance was measured at 450 nm corrected by a reference at 620 nm (λexc = 450 nm/λemi = 620 nm) using an Infinite M200 PRO plate reader (Tecan; Männedorf, Switzerland). […] The absorbed dye was quantified by fluorescence measurement (λexc = 530 nm/λemi = 645 nm) on an Infinite M200 PRO plate reader (Tecan; Männedorf, Switzerland). Background corrected viability values of both assays were expressed as a percentage of untreated cells. […] Means and standard deviations for each treatment were calculated. […]
# [2] = test system: HepaRG cells; test: Total RNA sequencing, differential gene expression
# [3] = high sub-cytotoxic concentration, 24 h, vs solvent control
# [4] = low sub-cytotoxic concentration, 24 h, vs solvent control
smiles,measurement,setting,value
"C#CCOc1ccc(CCNC(=O)C(OCC#C)c2ccc(Cl)cc2)cc1OC (stereo not shown) [MDP, mandipropamid]",EC50 for cytotoxicity,[1],245 µg/mL
same,Fold change ACOX1,"[2]; gene ACOX1, MDP_HIGH",0.9326
same,log2FoldChange ACOX1,"[2]; gene ACOX1, MDP_HIGH",-0.1007
same,Fold change AHR,"[2]; gene AHR, MDP_HIGH",1.696
same,log2FoldChange AHR,"[2]; gene AHR, MDP_HIGH",0.7618
same,Fold change CD36,"[2]; gene CD36, MDP_HIGH",1.4443
same,log2FoldChange CD36,"[2]; gene CD36, MDP_HIGH",0.5304
same,Fold change CYP1A1,"[2]; gene CYP1A1, MDP_HIGH",10.9554
same,log2FoldChange CYP1A1,"[2]; gene CYP1A1, MDP_HIGH",3.454
same,Fold change CYP1A2,"[2]; gene CYP1A2, MDP_HIGH",0.4656
same,log2FoldChange CYP1A2,"[2]; gene CYP1A2, MDP_HIGH",-1.103
same,Fold change CYP2B6,"[2]; gene CYP2B6, MDP_HIGH",1.009
same,log2FoldChange CYP2B6,"[2]; gene CYP2B6, MDP_HIGH",0.01275
same,Fold change CYP2C9,"[2]; gene CYP2C9, MDP_HIGH",0.1687
same,log2FoldChange CYP2C9,"[2]; gene CYP2C9, MDP_HIGH",-2.568
same,Fold change CYP2C19,"[2]; gene CYP2C19, MDP_HIGH",0.1531
same,log2FoldChange CYP2C19,"[2]; gene CYP2C19, MDP_HIGH",-2.707
same,Fold change CYP2D6,"[2]; gene CYP2D6, MDP_HIGH",0.9227
same,log2FoldChange CYP2D6,"[2]; gene CYP2D6, MDP_HIGH",-0.116
same,Fold change CYP3A4,"[2]; gene CYP3A4, MDP_HIGH",0.7016
same,log2FoldChange CYP3A4,"[2]; gene CYP3A4, MDP_HIGH",-0.5112
same,Fold change FASN,"[2]; gene FASN, MDP_HIGH",1.131
same,log2FoldChange FASN,"[2]; gene FASN, MDP_HIGH",0.178
same,Fold change INSIG1,"[2]; gene INSIG1, MDP_HIGH",1.034
same,log2FoldChange INSIG1,"[2]; gene INSIG1, MDP_HIGH",0.04872
same,Fold change MLXIPL,"[2]; gene MLXIPL, MDP_HIGH",0.6622
same,log2FoldChange MLXIPL,"[2]; gene MLXIPL, MDP_HIGH",-0.5947
same,Fold change NR1H2,"[2]; gene NR1H2, MDP_HIGH",1.431
same,log2FoldChange NR1H2,"[2]; gene NR1H2, MDP_HIGH",0.5168
same,Fold change NR1H4,"[2]; gene NR1H4, MDP_HIGH",0.8415
same,log2FoldChange NR1H4,"[2]; gene NR1H4, MDP_HIGH",-0.249
same,Fold change NR1I2,"[2]; gene NR1I2, MDP_HIGH",0.5918
same,log2FoldChange NR1I2,"[2]; gene NR1I2, MDP_HIGH",-0.7568
same,Fold change NR1I3,"[2]; gene NR1I3, MDP_HIGH",0.06449
same,log2FoldChange NR1I3,"[2]; gene NR1I3, MDP_HIGH",-3.955
same,Fold change NR3C1,"[2]; gene NR3C1, MDP_HIGH",1.123
same,log2FoldChange NR3C1,"[2]; gene NR3C1, MDP_HIGH",0.1669
same,Fold change PPARA,"[2]; gene PPARA, MDP_HIGH",0.7275
same,log2FoldChange PPARA,"[2]; gene PPARA, MDP_HIGH",-0.4589
same,Fold change PPARG,"[2]; gene PPARG, MDP_HIGH",4.604
same,log2FoldChange PPARG,"[2]; gene PPARG, MDP_HIGH",2.203
same,Fold change RARA,"[2]; gene RARA, MDP_HIGH",1.153
same,log2FoldChange RARA,"[2]; gene RARA, MDP_HIGH",0.2052
same,Fold change RARB,"[2]; gene RARB, MDP_HIGH",2.749
same,log2FoldChange RARB,"[2]; gene RARB, MDP_HIGH",1.459
same,Fold change RARG,"[2]; gene RARG, MDP_HIGH",1.386
same,log2FoldChange RARG,"[2]; gene RARG, MDP_HIGH",0.4711
same,Fold change SCD,"[2]; gene SCD, MDP_HIGH",0.8254
same,log2FoldChange SCD,"[2]; gene SCD, MDP_HIGH",-0.2768
same,Fold change SREBF1,"[2]; gene SREBF1, MDP_HIGH",0.451
same,log2FoldChange SREBF1,"[2]; gene SREBF1, MDP_HIGH",-1.149
same,CYP1A1 Fold change,[2]; [3],≈ 11
same,NR1I3 Fold change,[2]; [3],≈ 0.06
same,SREBF1 Fold change,[2]; [3],≈ 0.45
same,ACOX1 Fold change,[2]; [4],1.035
same,ACOX1 log2FoldChange,[2]; [4],0.04967
same,AHR Fold change,[2]; [4],1.296
same,AHR log2FoldChange,[2]; [4],0.3736
same,CD36 Fold change,[2]; [4],1.929
same,CD36 log2FoldChange,[2]; [4],0.9479
same,CYP1A1 Fold change,[2]; [4],5.261
same,CYP1A1 log2FoldChange,[2]; [4],2.395
same,CYP1A2 Fold change,[2]; [4],0.6714
same,CYP1A2 log2FoldChange,[2]; [4],-0.5747
same,CYP2B6 Fold change,[2]; [4],1.3371
same,CYP2B6 log2FoldChange,[2]; [4],0.4191
same,CYP2C9 Fold change,[2]; [4],0.329
same,CYP2C9 log2FoldChange,[2]; [4],-1.6038
same,CYP2C19 Fold change,[2]; [4],0.4073
same,CYP2C19 log2FoldChange,[2]; [4],-1.2958
same,CYP2D6 Fold change,[2]; [4],0.5576
same,CYP2D6 log2FoldChange,[2]; [4],-0.8427
same,CYP3A4 log2FoldChange,[2]; [4],1.049
same,FASN Fold change,[2]; [4],1.765
same,FASN log2FoldChange,[2]; [4],0.8201
same,INSIG1 Fold change,[2]; [4],1.785
same,INSIG1 log2FoldChange,[2]; [4],0.8359
same,MLXIPL Fold change,[2]; [4],0.9069
same,MLXIPL log2FoldChange,[2]; [4],-0.1409
same,NR1H2 Fold change,[2]; [4],1.22
same,NR1H2 log2FoldChange,[2]; [4],0.2868
same,NR1H4 Fold change,[2]; [4],1.127
same,NR1H4 log2FoldChange,[2]; [4],0.1725
same,NR1I2 Fold change,[2]; [4],0.6165
same,NR1I2 log2FoldChange,[2]; [4],-0.6979
same,NR1I3 Fold change,[2]; [4],0.09752
same,NR1I3 log2FoldChange,[2]; [4],-3.358
same,NR3C1 Fold change,[2]; [4],1.06
same,NR3C1 log2FoldChange,[2]; [4],0.08356
same,PPARA Fold change,[2]; [4],0.907
same,PPARA log2FoldChange,[2]; [4],-0.1409
same,PPARG Fold change,[2]; [4],2.875
same,PPARG log2FoldChange,[2]; [4],1.5234
same,RARA Fold change,[2]; [4],1.12
same,RARA log2FoldChange,[2]; [4],0.164
same,RARB Fold change,[2]; [4],3.072
same,RARB log2FoldChange,[2]; [4],1.619
same,RARG Fold change,[2]; [4],1.553
same,RARG log2FoldChange,[2]; [4],0.6348
same,SCD Fold change,[2]; [4],1.519
same,SCD log2FoldChange,[2]; [4],0.6028
same,SREBF1 Fold change,[2]; [4],0.7245
same,SREBF1 log2FoldChange,[2]; [4],-0.4649
